Reference: patent US10273221B2, “Microbiocidal heterobicyclic derivatives” (Syngenta Participations AG, priority 2015, dated 2019)

Key:
[1] = tested on: Monographella nivalis (Microdochium nivale); experiment: Monographella nivalis (Microdochium nivale) / liquid culture (foot rot cereals); format: cell-based; details: 96 h, growth inhibition determined photometrically 4-5 days after application, vs untreated control, read-out: disease control
[2] = tested on: Glomerella lagenarium (Colletotrichum lagenarium); experiment: Glomerella lagenarium (Colletotrichum lagenarium) / liquid culture (anthracnose); format: cell-based; details: Colletotrichum orbiculare, growth inhibition measured photometrically 3-4 days after application, vs untreated control, read-out: disease control
[3] = tested on: Botryotinia fuckeliana (Botrytis cinerea); experiment: Botryotinia fuckeliana (Botrytis cinerea) / liquid culture (gray mould); format: cell-based; details: growth inhibition determined photometrically 3-4 days after application, vs untreated control, read-out: disease control
[4] = tested on: Magnaporthe grisea (Pyricularia oryzae); experiment: microbe, parasite or virus in culture; format: cell-based; details: 72 h, read-out: control of Magnaporthe grisea
[5] = tested on: Sclerotinia sclerotiorum; experiment: Sclerotinia sclerotiorum / liquid culture (cottony rot); details: 72 h, read-out: control of Sclerotinia sclerotiorum
Experimental: Sclerotinia sclerotiorum/Liquid Culture (Cottony Rot)
Mycelia fragments of a newly grown liquid culture of the fungus are directly mixed into nutrient broth (Vogels broth). After placing a (DMSO) solution of test compound into a microtiter plate (96-well format) the nutrient broth containing the fungal material is added. The test plates are incubated at 24° C. and the inhibition of growth is determined photometrically 3-4 days after application.

[6] = tested on: Fusarium culmorum; experiment: microbe, parasite or virus in culture; format: cell-based; details: 72 h, read-out: disease control
[7] = tested on: Gaeumannomyces graminis; experiment: Gaeumannomyces graminis / liquid culture (take-all of cereals); format: cell-based; details: growth inhibition determined photometrically 4-5 days after application, vs untreated control, read-out: disease control

CC1(C)N=C(n2cnc3cc(Cl)c(Cl)cc32)c2cccc(F)c2C1(C)C [E-39]
126 to 127 °C: melting point
≥ 80%: inhibition of growth at 200 ppm [1] | inhibition of growth at 200 ppm [2] | inhibition of growth at 200 ppm [3] | inhibition of growth at 20 ppm [4] | inhibition of growth at 20 ppm [5]

Cc1cccc2c1ncn2C1=NC(C)(C)Cc2c(Cl)cccc21 [E-40]
≥ 80%: inhibition of growth at 200 ppm [1] | inhibition of growth at 200 ppm [2] | inhibition of growth at 200 ppm [3] | inhibition of growth at 20 ppm [4] | inhibition of growth at 20 ppm [5]

Cc1c(Br)ccc2c1ncn2C1=NC(C)(C)C(C)(C)c2c(F)cccc21 [E-41]
122 to 124 °C: melting point
≥ 80%: inhibition of growth at 200 ppm [6] | inhibition of growth at 200 ppm [1] | inhibition of growth at 200 ppm [2] | inhibition of growth at 200 ppm [3] | inhibition of growth at 20 ppm [4] | inhibition of growth at 20 ppm [5] | inhibition of growth at 200 ppm [7]

Cc1c(Cl)ccc2c1ncn2C1=NC(C)(C)C(C)(C)c2c(F)cccc21 [E-42]
≥ 80%: inhibition of growth at 200 ppm [6] | inhibition of growth at 200 ppm [1] | inhibition of growth at 200 ppm [2] | inhibition of growth at 200 ppm [3] | inhibition of growth at 20 ppm [4] | inhibition of growth at 20 ppm [5]
102 to 103 °C: melting point

Cc1cccc2c1ncn2C1=NC2(CCC2)Cc2ccccc21 [E-43]
132 to 133 °C: melting point
≥ 80%: inhibition of growth at 200 ppm [1] | inhibition of growth at 200 ppm [2] | inhibition of growth at 200 ppm [3] | inhibition of growth at 20 ppm [4] | inhibition of growth at 20 ppm [5]

Cc1cccc2c1ncn2C1=NCC(C)(C)c2ccccc21 [E-44]
≥ 80%: inhibition of growth at 200 ppm [1] | inhibition of growth at 200 ppm [2] | inhibition of growth at 200 ppm [3] | inhibition of growth at 20 ppm [4] | inhibition of growth at 20 ppm [5]

Cc1cccc2c1ncn2C1=NC(C)(C)C(C)(C)c2c1ccc(Cl)c2F [E-45]
≥ 80%: inhibition of growth at 200 ppm [6] | inhibition of growth at 200 ppm [1] | inhibition of growth at 200 ppm [2] | inhibition of growth at 200 ppm [3] | inhibition of growth at 20 ppm [4] | inhibition of growth at 20 ppm [5]
147 to 151 °C: melting point

Cc1cccc2c1ncn2C1=NC(C)(C)C(C)(C)c2c1ccc(F)c2F [E-46]
122 to 125 °C: melting point
≥ 80%: inhibition of growth at 200 ppm [6] | inhibition of growth at 200 ppm [1] | inhibition of growth at 200 ppm [2] | inhibition of growth at 200 ppm [3] | inhibition of growth at 20 ppm [4] | inhibition of growth at 20 ppm [5]

Cc1cccc2c1ncn2C1=NC(C)(C)C(F)(F)c2cc(Cl)ccc21 [E-47]
≥ 80%: inhibition of growth at 200 ppm [6] | inhibition of growth at 200 ppm [1] | inhibition of growth at 200 ppm [3] | inhibition of growth at 20 ppm [4] | inhibition of growth at 200 ppm [7]

Cc1c(F)ccc2c1ncn2C1=NC(C)(C)C(F)(F)c2cc(Cl)ccc21 [E-48]
≥ 80%: inhibition of growth at 200 ppm [6] | inhibition of growth at 200 ppm [1] | inhibition of growth at 200 ppm [3] | inhibition of growth at 20 ppm [4] | inhibition of growth at 200 ppm [7]

Cc1ccc2c(ncn2C2=NC(C)(C)C(F)(F)c3cc(Cl)ccc32)c1C [E-49]
≥ 80%: inhibition of growth at 200 ppm [6] | inhibition of growth at 200 ppm [1] | inhibition of growth at 200 ppm [2] | inhibition of growth at 200 ppm [3] | inhibition of growth at 20 ppm [4] | inhibition of growth at 200 ppm [7]

CC1(C)N=C(n2cnc3c4c(ccc32)CCC4)c2cccc(F)c2C1(C)C [E-51]
≥ 80%: inhibition of growth at 200 ppm [6] | inhibition of growth at 200 ppm [1] | inhibition of growth at 200 ppm [3] | inhibition of growth at 20 ppm [4] | inhibition of growth at 200 ppm [7]
177 to 178 °C: melting point

Cc1cccc2c1ncn2C1=NCC2(CCCCC2)c2ccccc21 [E-52]
≥ 80%: inhibition of growth at 200 ppm [3] | inhibition of growth at 20 ppm [4]

Cc1ccc2c(ncn2C2=NC3(CC3)C3(CC3)c3ccccc32)c1C [E-58]
≥ 80%: inhibition of growth at 200 ppm [6] | inhibition of growth at 200 ppm [1] | inhibition of growth at 200 ppm [2] | inhibition of growth at 200 ppm [3] | inhibition of growth at 20 ppm [4] | inhibition of growth at 20 ppm [5] | inhibition of growth at 200 ppm [7]
141 to 143 °C: melting point

Cc1cccc2c1ncn2C1=NC2(CC2)Cc2ccccc21 [E-59]
≥ 80%: inhibition of growth at 200 ppm [6] | inhibition of growth at 200 ppm [1] | inhibition of growth at 200 ppm [2] | inhibition of growth at 200 ppm [3] | inhibition of growth at 20 ppm [4] | inhibition of growth at 200 ppm [7]

Cc1cccc2c1ncn2C1=NC2(CC2)C2(CC2)c2ccccc21 [E-61]
≥ 80%: inhibition of growth at 200 ppm [6] | inhibition of growth at 200 ppm [1] | inhibition of growth at 200 ppm [2] | inhibition of growth at 200 ppm [3] | inhibition of growth at 20 ppm [4] | inhibition of growth at 20 ppm [5] | inhibition of growth at 200 ppm [7]

Cc1cccc2c1ncn2C1=NC(C)(C)C(C)(C)c2c(F)cccc21 [Example 1]
118 to 120 °C: melting point
